Structures can show the parent of a compound that is named as a salt.
Target: T1, abc isoform of human TMEM16A channel expressed in CHO cells (Homo sapiens, UniProt Q5XXA6, DEL476-501)
T1 construct: expressed in transfected cells; host or cells: CHO cells, doxycycline-inducible expression under Blasticidin/Zeocin selection
T1 sequence (Q5XXA6 with tags, fused parts or gaps isoform Q5XXA6-5 DEL539-564): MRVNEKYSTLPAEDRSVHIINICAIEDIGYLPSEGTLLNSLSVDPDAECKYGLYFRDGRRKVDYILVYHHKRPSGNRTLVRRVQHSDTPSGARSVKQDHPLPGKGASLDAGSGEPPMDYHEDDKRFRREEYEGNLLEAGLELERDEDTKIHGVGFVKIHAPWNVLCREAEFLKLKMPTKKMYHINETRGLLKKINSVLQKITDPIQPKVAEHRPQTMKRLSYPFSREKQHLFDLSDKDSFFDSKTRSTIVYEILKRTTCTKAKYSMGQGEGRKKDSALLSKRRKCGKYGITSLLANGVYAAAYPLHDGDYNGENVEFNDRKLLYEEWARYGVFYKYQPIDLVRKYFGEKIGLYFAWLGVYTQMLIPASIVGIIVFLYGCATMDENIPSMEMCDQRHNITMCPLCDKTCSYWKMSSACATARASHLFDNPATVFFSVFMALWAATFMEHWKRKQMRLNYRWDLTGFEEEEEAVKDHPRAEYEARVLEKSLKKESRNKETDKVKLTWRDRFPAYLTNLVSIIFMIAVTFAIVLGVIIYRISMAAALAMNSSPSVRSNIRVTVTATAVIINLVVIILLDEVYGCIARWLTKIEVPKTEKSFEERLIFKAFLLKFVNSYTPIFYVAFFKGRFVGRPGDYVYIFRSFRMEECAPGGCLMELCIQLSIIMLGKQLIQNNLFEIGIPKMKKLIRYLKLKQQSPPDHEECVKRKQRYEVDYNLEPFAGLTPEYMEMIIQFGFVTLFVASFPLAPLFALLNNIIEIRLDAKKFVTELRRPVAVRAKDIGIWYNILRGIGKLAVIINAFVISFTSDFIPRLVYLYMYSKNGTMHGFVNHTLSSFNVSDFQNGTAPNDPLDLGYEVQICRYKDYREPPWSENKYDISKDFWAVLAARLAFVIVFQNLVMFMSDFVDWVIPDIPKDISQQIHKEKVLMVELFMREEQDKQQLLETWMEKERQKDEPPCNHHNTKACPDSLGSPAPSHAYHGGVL
Test: Automated patch clamping (QPatch) assay to measure TMEM16A activity in whole-cell
Format: cell-based
Conditions: for EC50: CHO cells expressing human TMEM16A (abc), whole-cell automated patch clamp, Hill fit, read-out: TMEM16A QPATCH assay EC50 V3 EC50; for Emax: CHO, maximum current at highest dose relative to reference potentiator at maximal concentration (upper limit) and vehicle (lower limit), read-out: TMEM16A QPATCH assay EC50 V3 Assay Window (% TMEM16A max activation)
How it was run: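 Whole-cell currents were recorded by planar automated patch clamp from induced CHO cells (doxycycline 1 μg/mL, 18-24 h), using a −70 mV hold, +70 mV step and −90 to +70 mV ramp. Values: Hill-fitted EC50, and activation scaled between vehicle current and reference-potentiator maximum; 0.3% DMSO final.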

Structure (SMILES) | EC50 [nM] | Emax [%]
CC(C)[C@H](C)NC(=O)c1cnc(-c2cccc(-c3nnc(C(=O)N[C@@H](C)C4CC4)[nH]3)c2)o1 [Example 12.11] | 150 | 80
CCC(CC)NC(=O)c1cnc(-c2cccc(-c3cc(C(=O)N4CCCCC4)n[nH]3)c2)o1 [Example 3.33, N-(Pentan-3-Yl)-2-(3-(3-(Piperidine-1-Carbonyl)-1H-Pyrazol-5-Yl)Phenyl)Oxazole-5-Carboxamide] | 840 | 61
CCC(CC)NC(=O)c1cnc(-c2cccc(-c3cn(CC(O)C(F)(F)F)c(C(=O)N[C@@H](C)C4CC4)n3)c2)o1 (stereo partly drawn) [Example 17.0, 2-(3-(2-(((S)-1-Cyclopropylethyl)Carbamoyl)-1-(3,3,3-Trifluoro-2-Hydroxypropyl)-1H-Imidazol-4-Yl)Phenyl)-N-(Pentan-3-Yl)Oxazole-5-Carboxamide] | 790 | 186
CCC(CC)NC(=O)c1cnc(-c2cccc(-c3cc(C(=O)NCC4(N5CCOCC5)CCCCC4)n[nH]3)c2)o1 [Example 3.67, 2-(3-(3-(((1-Morpholinocyclohexyl)Methyl)Carbamoyl)-1H-Pyrazol-5-Yl)Phenyl)-N-(Pentan-3-Yl)Oxazole-5-Carboxamide Trifluoroacetate] | 790 | 68
CCC(CC)NC(=O)c1cnc(-c2cccc(-c3nnc(C(=O)NCC4CCCCC4)[nH]3)c2)o1 [Example 13.5, 2-(3-(5-((Cyclohexylmethyl)Carbamoyl)-4H-1,2,4-Triazol-3-Yl)Phenyl)-N-(Pentan-3-Yl)Oxazole-5-Carboxamide] | 30 | 88
CCOC(=O)[C@@H](NC(=O)c1cnc(-c2cccc(-c3cc(C(=O)NC(C)C(F)(F)F)[nH]n3)c2)o1)C(C)C (stereo partly drawn) [Example 3.55, (2S)-Ethyl 3-Methyl-2-(2-(3-(5-((1,1,1-Trifluoropropan-2-Yl)Carbamoyl)-1H-Pyrazol-3-Yl)Phenyl)Oxazole-5-Carboxamido)Butanoate] | 20 | 69
CCOC(=O)[C@@H](NC(=O)c1cnc(-c2cccc(-c3cc(C(=O)NC(C4CC4)C4CC4)n(CCO)n3)c2)o1)C(C)C [Example 4.4, (S)-Ethyl 2-(2-(3-(5-((Dicyclopropylmethyl)Carbamoyl)-1-(2-Hydroxyethyl)-1 H-Pyrazol-3-Yl)Phenyl)Oxazole-5-Carboxamido)-3-Methylbutanoate] | 130 | 172

Next, values leading:

EC50 [nM] | Emax [%] | Structure (SMILES)
10 | 87 | CCC(CC)NC(=O)c1cnc(-c2cccc(-c3cc(C(=O)N[C@@H](CC(C)C)C(=O)OC)n[nH]3)c2)o1 [Example 3.27, (S)-Methyl 4-Methyl-2-(5-(3-(5-(Pentan-3-Ylcarbamoyl)Oxazol-2-Yl)Phenyl)-1H-Pyrazole-3-Carboxamido)Pentanoate]
980 | 64 | CCOC(=O)C(C)(C)NC(=O)c1cnc(-c2cccc(-c3cc(C(=O)NC(CC)CC)n[nH]3)c2)o1 [Example 1.51, Ethyl 2-Methyl-2-(2-(3-(3-(Pentan-3-Ylcarbamoyl)-1H-Pyrazol-5-Yl)Phenyl)Oxazole-5-Carboxamido)Propanoate Trifluoroacetate]
160 | 88 | CCC(CC)NC(=O)c1cc(-c2cccc(-c3ncc(C(=O)NC(C)(C)CCc4ccccc4)o3)c2)[nH]n1 [Example 3.68, N-(2-Methyl-4-Phenylbutan-2-Yl)-2-(3-(3-(Pentan-3-Ylcarbamoylyl-Carbamoyl)-1H-Pyrazol-5-Yl)Phenyl)Oxazole-5-Carboxamide]
270 | 76 | CCC(CC)NC(=O)c1cnc(-c2cccc(-c3cc(C(=O)NCC(C)(C)OC)n[nH]3)c2)o1 [Example 3.12, 2-(3-(3-((2-Methoxy-2-Methylpropyl)Carbamoyl)-1H-Pyrazol-5-Yl)Phenyl)-N-(Pentan-3-Yl)Oxazole-5-Carboxamide]
